From PMC11374673, “Discovery of isoquinoline sulfonamides as allosteric gyrase inhibitors with activity against fluoroquinolone-resistant bacteria” (Nature Chemistry, 2024)
Where “and” joins values, the source holds several entries; their conditions need not be identical. Equal entries are not always repeated. Entries after “also recorded” stand apart in the source; their conditions may differ. Where two headings read alike, the source gives them in different places.

Key:
[1] = system: E. coli W3110; assay: Checkerboard assay with PMBN; settings: for Checkerboard well reading (growth), Average values: average of 3 wells; for Checkerboard well reading (growth): single wells (triplicate)
[2] = system: E. coli W3110; assay: MIC by broth microdilution; type: cell-based, Escherichia coli; settings: for MIC: broth microdilution, read-out: MIC E. coli W3110; for antimicrobial activity: relative to parent compound
Summary of the method: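 Broth microdilution in CAMHB: twofold compound series inoculated with 100-fold-diluted bacteria from exponential growth (OD600 0.5, 37 °C); kanamycin 50 µg ml^−1 added for Keio collection strains. Overnight incubation, 37 °C, 600 r.p.m. shaking.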

Compound: O=S(=O)(NC[C@H]1CC[C@@H](c2ccc(-c3ccc(F)nc3)cc2)N1)c1cccc2cnccc12 [LEI-801]
- Checkerboard well reading (growth), Average values ([1]; LEI-801 12.5 µM + PMBN 0 µM): 0.6968
- Checkerboard well reading (growth), Average values ([1]; LEI-801 12.5 µM + PMBN 0.5 µM): 0.5454
- Checkerboard well reading (growth), Average values ([1]; LEI-801 12.5 µM + PMBN 1 µM): 0.4004
- Checkerboard well reading (growth), Average values ([1]; LEI-801 12.5 µM + PMBN 2 µM): 0.1564
- Checkerboard well reading (growth) ([1]; LEI-801 12.5 µM + PMBN 2 µM): 0.1441 and 0.1568 and 0.1684
- Checkerboard well reading (growth), Average values ([1]; LEI-801 12.5 µM + PMBN 4 µM): 0.1485
- Checkerboard well reading (growth) ([1]; LEI-801 12.5 µM + PMBN 4 µM): 0.1572
- Checkerboard well reading (growth), Average values ([1]; LEI-801 12.5 µM + PMBN 8 µM): 0.1397
- Checkerboard well reading (growth), Average values ([1]; LEI-801 12.5 µM + PMBN 16 µM): 0.1401
- Checkerboard well reading (growth), Average values ([1]; LEI-801 12.5 µM + PMBN 32 µM): 0.1472
- Checkerboard well reading (growth), Average values ([1]; LEI-801 25 µM + PMBN 0 µM): 0.6592
- Checkerboard well reading (growth) ([1]; LEI-801 25 µM + PMBN 0 µM): 0.7013 and 0.6648 and 0.6113
- Checkerboard well reading (growth), Average values ([1]; LEI-801 25 µM + PMBN 0.5 µM): 0.5495
- Checkerboard well reading (growth) ([1]; LEI-801 25 µM + PMBN 0.5 µM): 0.5605 and 0.5428 and 0.5453
- Checkerboard well reading (growth), Average values ([1]; LEI-801 25 µM + PMBN 1 µM): 0.1537
- Checkerboard well reading (growth) ([1]; LEI-801 25 µM + PMBN 1 µM): 0.153 and 0.1529 and 0.1554
- Checkerboard well reading (growth), Average values ([1]; LEI-801 25 µM + PMBN 2 µM): 0.155
- Checkerboard well reading (growth) ([1]; LEI-801 25 µM + PMBN 2 µM): 0.1518 and 0.1536 and 0.1596
- Checkerboard well reading (growth), Average values ([1]; LEI-801 25 µM + PMBN 4 µM): 0.1451
- Checkerboard well reading (growth) ([1]; LEI-801 25 µM + PMBN 4 µM): 0.1525 and 0.1428 and 0.1399
- Checkerboard well reading (growth), Average values ([1]; LEI-801 25 µM + PMBN 8 µM): 0.1413
- Checkerboard well reading (growth) ([1]; LEI-801 25 µM + PMBN 8 µM): 0.1394 and 0.1427 and 0.1418
- Checkerboard well reading (growth), Average values ([1]; LEI-801 25 µM + PMBN 16 µM): 0.1492
- Checkerboard well reading (growth) ([1]; LEI-801 25 µM + PMBN 16 µM): 0.1486 and 0.1511 and 0.148
- Checkerboard well reading (growth), Average values ([1]; LEI-801 25 µM + PMBN 32 µM): 0.1528
- Checkerboard well reading (growth) ([1]; LEI-801 25 µM + PMBN 32 µM): 0.1518 and 0.1502 and 0.1563
- Checkerboard well reading (growth), Average values ([1]; LEI-801 50 µM + PMBN 0 µM): 0.5341
- Checkerboard well reading (growth) ([1]; LEI-801 50 µM + PMBN 0 µM): 0.4876 and 0.5464 and 0.5682
- Checkerboard well reading (growth), Average values ([1]; LEI-801 50 µM + PMBN 0.5 µM): 0.1519
- Checkerboard well reading (growth) ([1]; LEI-801 50 µM + PMBN 0.5 µM): 0.1573 and 0.1437 and 0.1549
- Checkerboard well reading (growth), Average values ([1]; LEI-801 50 µM + PMBN 1 µM): 0.152
- Checkerboard well reading (growth) ([1]; LEI-801 50 µM + PMBN 1 µM): 0.1515 and 0.1507 and 0.1538
- Checkerboard well reading (growth), Average values ([1]; LEI-801 50 µM + PMBN 2 µM): 0.1516
- Checkerboard well reading (growth) ([1]; LEI-801 50 µM + PMBN 2 µM): 0.15 and 0.1487 and 0.1561
- Checkerboard well reading (growth), Average values ([1]; LEI-801 50 µM + PMBN 4 µM): 0.1474
- Checkerboard well reading (growth) ([1]; LEI-801 50 µM + PMBN 4 µM): 0.1453 and 0.1491 and 0.1477
- Checkerboard well reading (growth), Average values ([1]; LEI-801 50 µM + PMBN 8 µM): 0.1653
- Checkerboard well reading (growth) ([1]; LEI-801 50 µM + PMBN 8 µM): 0.1998 and 0.1452 and 0.1509
- Checkerboard well reading (growth), Average values ([1]; LEI-801 50 µM + PMBN 16 µM): 0.1513
- Checkerboard well reading (growth) ([1]; LEI-801 50 µM + PMBN 16 µM): 0.1499 and 0.152 and 0.1519
- Checkerboard well reading (growth), Average values ([1]; LEI-801 50 µM + PMBN 32 µM): 0.1507
- Checkerboard well reading (growth) ([1]; LEI-801 50 µM + PMBN 32 µM): 0.1485 and 0.1492 and 0.1546
- MIC E. coli + 8 μM PMBN ([1]; LPS disruption (pharmacological)): 6.25 µM
- synergy with PMBN ([1]; checkerboard): potentiates; also recorded: Clear synergy
- MSC ([1]; checkerboard with PMBN, E. coli W3110): 6.25 µM
- MIC ([2]; Escherichia coli, W3110, WT): > 50 µM
- MIC ([2]; WT, listed as LEI-801 (99)): > 50 µM
- antimicrobial activity ([2]; listed as 99): completely inactive
- antimicrobial activity ([2]; listed as 99 (LEI-801)): inactive
